Reference: PubChem BioAssay AID248 (DTP/NCI, 2004)
Where “and” joins values, the source holds several entries; their conditions need not be identical. Identical values can stand only once. Inconclusive results and toxic doses are left out. Rule as the data show it: active = T/C of 150% or more; inactive = T/C below 125%.

System: L1210 leukemia ip in BDF1 mice, survival T/C
Experiment: NCI In Vivo Anticancer Drug Screen. Data for tumor model L1210 Leukemia (intraperitoneal) in B6D2F1 (BDF1) mice
Settings: endpoint: mean survival time, higher = longer survival
Summary of the method: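 Antitumor effect is assessed in tumor-bearing animals. Survival in the compound arm is compared with a vehicle-dosed control arm and expressed as their quotient.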

[1] = dose: 100.0 mg/kg/injection, schedule: Q04DX002 (ip), vehicle: saline with Tween-80
[2] = dose: 200.0 mg/kg/injection, schedule: Q04DX002 (ip), vehicle: saline with Tween-80
[3] = dose: 400.0 mg/kg/injection, schedule: Q04DX002 (ip), vehicle: saline with Tween-80
[4] = dose: 25.0 mg/kg/injection, schedule: Q04DX003 (ip), vehicle: saline
[5] = dose: 50.0 mg/kg/injection, schedule: Q01DX009 (ip), vehicle: saline
[6] = dose: 50.0 mg/kg/injection, schedule: Q04DX003 (ip), vehicle: saline
[7] = dose: 100.0 mg/kg/injection, schedule: Q01DX009 (ip), vehicle: saline
[8] = dose: 100.0 mg/kg/injection, schedule: Q04DX003 (ip), vehicle: saline
[9] = dose: 100.0 mg/kg/injection, schedule: Q04DX003 (ip), vehicle: saline with Tween-80
[10] = dose: 200.0 mg/kg/injection, schedule: Q04DX003 (ip), vehicle: saline with Tween-80
[11] = dose: 400.0 mg/kg/injection, schedule: Q04DX003 (ip), vehicle: saline with Tween-80
[12] = dose: 100.0 mg/kg/injection, schedule: Q04DX003 (ip), vehicle: Klucel (hydroxypropylcellulose) (HPC)
[13] = dose: 200.0 mg/kg/injection, schedule: Q04DX003 (ip), vehicle: Klucel (hydroxypropylcellulose) (HPC)
[14] = dose: 400.0 mg/kg/injection, schedule: Q04DX003 (ip), vehicle: Klucel (hydroxypropylcellulose) (HPC)
[15] = dose: 100.0 mg/kg/injection, schedule: Q01DX009 (ip), vehicle: saline with Tween-80
[16] = dose: 200.0 mg/kg/injection, schedule: Q01DX009 (ip), vehicle: saline with Tween-80
[17] = dose: 400.0 mg/kg/injection, schedule: Q01DX009 (ip), vehicle: saline with Tween-80
[18] = dose: 100.0 mg/kg/injection, schedule: Q01DX001 (ip), vehicle: saline with Tween-80
[19] = dose: 200.0 mg/kg/injection, schedule: Q01DX001 (ip), vehicle: saline with Tween-80
[20] = dose: 400.0 mg/kg/injection, schedule: Q01DX001 (ip), vehicle: saline with Tween-80

Measured: T/C

COCCOCC(=O)O
inactive: [1] 101 % of control | [2] 96 % of control | [3] 108 % of control

OCCN1CCC(CCCC2CCNCC2)CC1
inactive: dose: 10.0 mg/kg/injection, schedule: Q01DX Z (ip), vehicle: saline 97 % of control | dose: 25.0 mg/kg/injection, schedule: Q01DX009 (ip), vehicle: saline 102 % of control | [4] 111 % of control | dose: 30.0 mg/kg/injection, schedule: Q01DX Z (ip), vehicle: saline 102 % of control | [5] 96 % of control | [6] 98 % of control | [7] 91 % of control | [8] 108 % of control

COC1(OC)CCP(=S)(c2ccccc2)CC1C#N (stereo unspecified)
inactive: [9] 100 % of control | [10] 101 % of control | [11] 92 % of control

CN1CCC(CC(=O)O)CC1
inactive: [5] 92 % of control | [7] 92 % of control | dose: 200.0 mg/kg/injection, schedule: Q01DX009 (ip), vehicle: saline 111 % of control

O=C1OCC2CC3c4ccccc4C12c1ccccc13 (stereo unspecified)
inactive: dose: 100.0 mg/kg/injection, schedule: Q01DX001 (ip), vehicle: Klucel (hydroxypropylcellulose) (HPC) 100 % of control | [12] 98 % of control | dose: 200.0 mg/kg/injection, schedule: Q01DX001 (ip), vehicle: Klucel (hydroxypropylcellulose) (HPC) 92 % of control | [13] 93 % of control | dose: 400.0 mg/kg/injection, schedule: Q01DX001 (ip), vehicle: Klucel (hydroxypropylcellulose) (HPC) 105 % of control | [14] 97 % of control

COc1ccc(Cl)c(NC(=O)Nc2cc(Cl)ccc2C)c1
inactive: [15] 94 % of control and 95 % of control | [1] 98 % of control and 91 % of control | [16] 90 % of control | [2] 95 % of control and 91 % of control | [17] 93 % of control | [3] 87 % of control and 90 % of control

NC(Cc1ccc(OCc2ccccc2)cc1)C(=O)O (stereo unspecified)
inactive: [18] 92 % of control | [15] 95 % of control | [19] 89 % of control | [16] 90 % of control | [20] 89 % of control | [17] 96 % of control

CCOC(OCC)c1ccccc1 (tested in a mixture with another compound)
inactive: [15] 100 % of control | [16] 100 % of control | [17] 94 % of control

O=S(=O)(/C=C\c1ccccc1)/C=C/c1ccccc1
inactive: dose: 25.0 mg/kg/injection, schedule: Q04DX003 (ip), vehicle: saline with Tween-80 96 % of control | dose: 50.0 mg/kg/injection, schedule: Q04DX003 (ip), vehicle: saline with Tween-80 94 % of control | [9] 92 % of control

OC(c1ccccc1)C(Nc1ccccc1)c1ccccc1 (stereo unspecified)
inactive: dose: 75.0 mg/kg/injection, schedule: Q01DX001 (ip), vehicle: saline 102 % of control | [9] 96 % of control | dose: 150.0 mg/kg/injection, schedule: Q01DX001 (ip), vehicle: saline 94 % of control | [10] 98 % of control | dose: 300.0 mg/kg/injection, schedule: Q01DX001 (ip), vehicle: saline 97 % of control | [11] 93 % of control

Cc1ccnc(NC(C#N)c2ccccc2)c1 (stereo unspecified)
inactive: dose: 12.5 mg/kg/injection, schedule: Q01DX009 (ip), vehicle: saline with Tween-80 93 % of control | dose: 25.0 mg/kg/injection, schedule: Q01DX009 (ip), vehicle: saline with Tween-80 97 % of control | dose: 50.0 mg/kg/injection, schedule: Q01DX009 (ip), vehicle: saline with Tween-80 93 % of control and 100 % of control

CC1(C)NC(=O)N(CCOS(C)(=O)=O)C1=O
inactive: [4] 101 % of control | [6] 98 % of control | [8] 104 % of control | dose: 200.0 mg/kg/injection, schedule: Q04DX003 (ip), vehicle: saline 104 % of control | dose: 400.0 mg/kg/injection, schedule: Q04DX003 (ip), vehicle: saline 93 % of control

Cc1cccc(N2C(=O)C3C(C2=O)C2(Cl)C(Cl)=C(Cl)C3(Cl)C2(Cl)Cl)c1C (stereo unspecified)
inactive: dose: 3.0 mg/kg/injection, schedule: Q01DX009 (ip), vehicle: Klucel (hydroxypropylcellulose) (HPC) 96 % of control | dose: 6.0 mg/kg/injection, schedule: Q01DX009 (ip), vehicle: Klucel (hydroxypropylcellulose) (HPC) 102 % of control | dose: 12.5 mg/kg/injection, schedule: Q01DX009 (ip), vehicle: Klucel (hydroxypropylcellulose) (HPC) 111 % of control | dose: 25.0 mg/kg/injection, schedule: Q01DX009 (ip), vehicle: Klucel (hydroxypropylcellulose) (HPC) 107 % of control | dose: 50.0 mg/kg/injection, schedule: Q01DX009 (ip), vehicle: Klucel (hydroxypropylcellulose) (HPC) 103 % of control

C=CCOc1c(Cl)c(Cl)c(Cl)c(Cl)c1Cl
inactive: dose: 100.0 mg/kg/injection, schedule: Q01DX009 (ip), vehicle: saline sonified 96 % of control | [12] 96 % of control | dose: 200.0 mg/kg/injection, schedule: Q01DX009 (ip), vehicle: saline sonified 91 % of control | [13] 96 % of control | dose: 400.0 mg/kg/injection, schedule: Q01DX009 (ip), vehicle: saline sonified 97 % of control | [14] 96 % of control

N#CCC1=Cc2ccccc2CC1
inactive: dose: 6.25 mg/kg/injection, schedule: Q01DX005 (ip), vehicle: saline 109 % of control | dose: 12.5 mg/kg/injection, schedule: Q01DX005 (ip), vehicle: saline 102 % of control | dose: 25.0 mg/kg/injection, schedule: Q01DX005 (ip), vehicle: saline 102 % of control | dose: 50.0 mg/kg/injection, schedule: Q01DX005 (ip), vehicle: saline 106 % of control and 107 % of control

O=C1c2ccccc2-c2cccc3ccc(C4CCCCC4)c1c23
inactive: [18] 88 % of control | [19] 88 % of control | [20] 92 % of control

CCCCCCCCCCCCCC[n+]1ccccc1
inactive: dose: 0.25 mg/kg/injection, schedule: Q04DX003 (ip), vehicle: saline 96 % of control | dose: 0.5 mg/kg/injection, schedule: Q01DX001 (ip), vehicle: saline 97 % of control | dose: 0.5 mg/kg/injection, schedule: Q04DX003 (ip), vehicle: saline 94 % of control | dose: 1.0 mg/kg/injection, schedule: Q01DX001 (ip), vehicle: saline 105 % of control | dose: 1.0 mg/kg/injection, schedule: Q04DX003 (ip), vehicle: saline 96 % of control | dose: 2.0 mg/kg/injection, schedule: Q01DX001 (ip), vehicle: saline 112 % of control | dose: 2.0 mg/kg/injection, schedule: Q04DX003 (ip), vehicle: saline 96 % of control | dose: 4.0 mg/kg/injection, schedule: Q04DX003 (ip), vehicle: saline 109 % of control | dose: 62.5 micrograms/kg/injection, schedule: Q01DX009 (ip), vehicle: saline 119 % of control | dose: 125.0 micrograms/kg/injection, schedule: Q01DX009 (ip), vehicle: saline 100 % of control | dose: 250.0 micrograms/kg/injection, schedule: Q01DX009 (ip), vehicle: saline 113 % of control | dose: 500.0 micrograms/kg/injection, schedule: Q01DX009 (ip), vehicle: saline 105 % of control | dose: 1000.0 micrograms/kg/injection, schedule: Q01DX009 (ip), vehicle: saline 110 % of control
